Measured values: patent US20060111305A1, “Metabolites of certain [1,4]diazepino[6,7,1-ij]quinoline derivatives and methods of preparation and use thereof” (Wyeth, priority 2004, published 2006)

Experiments:
[1] = Incubation of [14C]DCDQ with rat liver microsomes; assay type: in vitro ADME, Sprague Dawley rats
Protocol: [^14C]DCDQ was mixed with non-radiolabeled DCDQ (1:3 or 1:5) in the incubations. Microsomal incubations consisted of [^14C]DCDQ, magnesium chloride (10 mM) and liver microsomes incubated in 0.5 mL of 0.1 M potassium phosphate buffer, pH 7.4. [^14C]DCDQ (20 μL) in water was added to the incubation tubes containing buffer, magnesium chloride solution and microsomes. After mixing, the tubes were pre-incubated for 2 minutes in a shaking water bath at 37° C. The reactions were initiated by the addition of UDPGA or the NADPH regenerating system. UDPGA was added to incubations as a 50 μL aliquot of a 20 mM solution in water, to give a final concentration of 2 mM. An NADPH regenerating system (30 μL) was added to incubations to evaluate CYP450-mediated metabolism. The NADPH regenerating system consisted of glucose-6-phosphate (2 mg/mL), glucose-6-phosphate dehydrogenase (0.8 units/mL) and NADP^+ (2 mg/mL). Control incubations were conducted under the same conditions, but without the NADPH generating system, UDPGA or microsomes. All incubations were performed in duplicate. Incubations were stopped by the addition of 0.5 mL ice-cold methanol. Samples were vortex-mixed. Denatured proteins were separated by centrifugation at 4300 rpm and 4° C. for 10 minutes (Model T21 super centrifuge, Sorvall). The protein pellets were extracted with 0.5 mL of methanol. The supernatant was combined for each sample, mixed and evaporated to a volume of about 0.3 mL under a nitrogen stream in a Zymark TurboVap LV evaporator (Caliper Life Science, Hopkinton, Mass.). The concentrated sample was centrifuged and aliquots were radioassayed and analyzed by HPLC. This method recovered an average of 92.1% of the radioactivity from the reaction mixture.
To evaluate species differences in cytochrome P450- and UGT-mediated metabolism, [^14C]DCDQ was incubated for 20 minutes with 0.5 mg/mL liver microsomal proteins from mice, rats, dogs or humans in the presence of the NADPH regenerating system or UDPGA. The assay conditions were the same as described above, and DCDQ concentrations were 12 μM and 56 μM for cytochrome P450- and UGT-mediated metabolism, respectively.
A Waters model 2690 HPLC system (Waters Corp., Milford, Mass.) with a built-in autosampler was used for analysis. Separations were accomplished on a Phenomenex Luna C18(2) column (2×150 mm, 5 μm) (Phenomenex, Torrance, Calif.) coupled with a filter (4×2 mm) cartridge. A variable wavelength UV detector set to monitor 250 nm and Flo-One β Model A525 radioactivity flow detector (Perkin Elmer) with a 250 μL LQTR flow cell were used for data acquisition. The flow rate of Ultima Flow M scintillation fluid was 1 mL/min, providing a mixing ratio of scintillation cocktail to mobile phase of 5:1. […]

[2] = Metabolites of DCDQ identified in rats by LC/MS analysis (Table 18); assay type: in vivo, Sprague-Dawley rats; conditions: P = plasma, U = urine, B = brain, F = feces
Protocol: An Agilent Model 1100 HPLC system (Agilent Technologies, Wilmington, Del.) including an autosampler and diode array UV detector was used for LC/MS analysis of plasma and urine samples. The UV detector was set to monitor 200 to 400 nm. For selected LC/MS analyses, radiochromatograms were acquired using a β-Ram model 3 radioactivity flow detector (IN/US Systems Inc., Tampa, Fla.) equipped with a solid scintillant flow cell. Fecal samples were also analyzed using a Waters Alliance model 2690 HPLC system. It was equipped with a built-in autosampler and a model 996 diode array UV detector set to 210-350 nm. The HPLC flow was split between a Radiomatic model 150TR flow scintillation analyzer (Perkin Elmer) and the mass spectrometer. Other HPLC conditions were the same as condition B described above.
The mass spectrometer used for metabolite characterization for plasma and urine was a Micromass Q-TOF-2 quadrupole time-of-flight hybrid mass spectrometer (Waters). The mass spectrometer was equipped with an electrospray ionization (ESI) interface and operated in the positive ionization mode. Collision energy settings of 5 and 30 eV were used for full MS and MS/MS scans, respectively. Settings for the mass spectrometer are listed below.
A Micromass Quattro Micro mass spectrometer (Waters) was also used to analyze the fecal samples. It was equipped with an electrospray ionization (ESI) interface and operated in the positive ionization mode. Settings for the mass spectrometer are listed below.
LC/MS/MS in the selected reaction-monitoring (SRM) mode (LC/SRM) was conducted with the triple quadruple mass spectrometer to monitor DCDQ and its metabolites in fecal samples. The transitions monitored are listed below.

[3] = NADPH regenerating system, 12 μM DCDQ, 20 min

Row | SMILES | metabolite detected in microsomal incubation [1, 3] | metabolite detected in microsomal incubation ([1]; UDPGA, 56 μM DCDQ) | Matrix [2]
1 | [O-][N+]12CCN=Cc3cccc(c31)[C@H]1CCC[C@H]1C2 (some centres unmarked) [Metabolite M5, DCDQ imine N-oxide] | not mouse or rat |  | 
2 | O=C(O)[C@H]1O[C@@H](OC(=O)N2CCN3C[C@@H]4CCC[C@@H]4c4cccc(c43)C2)[C@H](O)[C@@H](O)[C@@H]1O [Metabolite M6, carbamoyl glucuronide of DCDQ] |  | not mouse or rat | 
3 | c1cc2c3c(c1)[C@H]1CCC[C@H]1CN3CCNC2 [DCDQ, (9aR,12aS)-4,5,6,7,9,9a,10,11,12,12a-decahydro-cyclopenta[c][1,4]diazepine[6,7,1-ij]quinoline, reference compound] |  |  | P, U, F
4 | OC1[C@@H]2CCC[C@@H]2c2cccc3c2N1CCNC3 (some centres unmarked) [Metabolite M2, hydroxy DCDQ] | observed |  | P, U
5 | OC1CN2C[C@@H]3CCC[C@@H]3c3cccc(c32)CN1 (some centres unmarked) [Metabolite M1, hydroxy DCDQ] | not detected |  | P, U, B
6 | O=C1CC[C@@H]2c3cccc4c3N(CCNC4)C[C@H]12 [Metabolite M7, 17-keto DCDQ] |  |  | P, U, B
